This passage reports AC50 results from US20250171438A1 (Agios Pharmaceuticals, Inc., priority 2022, published 2025).

In the assay the target is T1, human PAH with the R408W mutation (Homo sapiens, UniProt P00439, R408W).
T1 construct: expressed in transfected cells
T1 sequence (P00439 1-452 R408W): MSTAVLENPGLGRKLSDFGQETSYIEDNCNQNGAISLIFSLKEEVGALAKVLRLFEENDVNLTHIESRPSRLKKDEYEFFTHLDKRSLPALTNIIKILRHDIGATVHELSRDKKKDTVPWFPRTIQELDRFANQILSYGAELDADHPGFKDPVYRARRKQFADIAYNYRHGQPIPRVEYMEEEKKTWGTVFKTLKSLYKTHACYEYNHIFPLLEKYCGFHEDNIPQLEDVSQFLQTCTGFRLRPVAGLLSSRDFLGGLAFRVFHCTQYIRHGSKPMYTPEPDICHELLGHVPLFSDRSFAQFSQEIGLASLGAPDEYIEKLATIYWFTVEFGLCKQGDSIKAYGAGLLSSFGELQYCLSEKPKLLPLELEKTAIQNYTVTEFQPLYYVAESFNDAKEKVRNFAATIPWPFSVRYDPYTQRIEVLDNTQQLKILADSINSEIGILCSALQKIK
As to the kind of experiment: Cell Based Phenylalanine Flux Assay. The conditions noted are these: A375 cells expressing human R408W PAH, 13C-Tyrosine by LC-MS, average where tested multiple times, read-out: AC50.

Read-outs that look alike come from different tables or passages of the source.

Usually AC50 stands for the concentration at which the activity in the assay is half-maximal. As for `Cc1cccc2sc(C3c4nc[nH]c4CCN3C(=O)c3cnn(C)c3Cl)nc12` (stereo not shown), where the note is “24 hrs with compound”, the AC50 is more than 5000 nM.
Consider `O=C(c1oc(CCC2CC2)nc1C(F)(F)F)N1CCc2[nH]cnc2[C@@H]1c1nc2c(F)cccc2s1` [Example 1626, (R)-(2-(2-cyclopropylethyl)-4-(trifluoromethyl)oxazol-5-yl)(4-(4-fluorobenzo[d]thiazol-2-yl)-6,7-dihydro-1H-imidazo[4,5-c]pyridin-5(4H)-yl)methanone], for which the AC50 (24 hrs compound incubation) was less than 500 nM.
Still for that read-out and setting: under `CC(C)(F)c1ccc2c(C(=O)N3CCc4[nH]cnc4[C@@H]3c3nc4ccccc4s3)cnn2c1` [Example 1480, (R)-(4-(benzo[d]thiazol-2-yl)-6,7-dihydro-1H-imidazo[4,5-c]pyridin-5(4H)-yl)(6-(2-fluoropropan-2-yl)pyrazolo[1,5-a]pyridin-3-yl)methanone] stands 1000 to 5000 nM.
For the compound `O=C(Cc1ccccn1)N1CCc2[nH]cnc2[C@H]1c1nc2ccccc2[nH]1` [(S)-1-(4-(1H-benzo[d]imidazol-2-yl)-6,7-dihydro-1H-imidazo[4,5-c]pyridin-5(4H)-yl)-2-(pyridin-2-yl)ethanone], where the note is “24 hrs with compound”, the AC50 was in the range of 1000 to 5000 nM.
On to `Cc1nc(C(C)(C)O)oc1C(=O)N1CCc2[nH]cnc2[C@H]1c1nc2ccccc2s1` [Example 1469], for which, for the setting “24 hrs compound incubation”, the concentration at half-maximal activity (AC50) was less than 500 nM.
As for `O=C(c1scnc1C(F)(F)F)N1CCc2[nH]cnc2[C@H]1c1nc2ccccc2s1` [Example 1341], the AC50 (24 hrs compound incubation) is less than 500 nM.
As for `Cn1cnc(C(=O)N2CCc3[nH]cnc3C2c2nc3c(F)cccc3s2)n1` (stereo not shown), the AC50 (24 hrs with compound) was more than 5000 nM.
As for `O=C(c1nncs1)N1CCc2[nH]cnc2[C@@H]1c1nc2cccc(F)c2s1` [Example 1265, (R)-(4-(7-fluorobenzo[d]thiazol-2-yl)-6,7-dihydro-1H-imidazo[4,5-c]pyridin-5(4H)-yl)(1,3,4-thiadiazol-2-yl)methanone], the AC50 (24 hrs compound incubation) is 1000 to 5000 nM.
Take `Cc1nc(C2CCN2)oc1C(=O)N1CCc2[nH]cnc2C1c1nc2c(F)cccc2s1` (stereo not shown): the AC50 (24 hrs with compound) was more than 5000 nM.
`CC(C)(O)c1nnc(C(=O)N2CCc3[nH]cnc3C2c2nc3c(F)cccc3s2)o1` (stereo not shown): the AC50 (24 hrs with compound) was in the range of 1000 to 5000 nM.
The same measure, in the same setting: under `O=C(Cc1nc(C(F)(F)F)cs1)N1CCc2[nH]cnc2C1c1nc2ccc(Cl)cc2[nH]1` (stereo not shown) stands more than 5000 nM.
Turning to `Cc1nc(-c2cnn(CC(F)(F)F)c2)oc1C(=O)N1CCc2[nH]cnc2[C@H]1c1nc2ccccc2s1` [Example 1413], the AC50 (24 hrs compound incubation) was less than 500 nM.
As to `O=C(c1cnn2c(Br)cccc12)N1CCc2[nH]cnc2C1c1nc2ccc(Br)cc2[nH]1` (stereo not shown), the AC50 (24 hrs with compound) lay within 1000 to 5000 nM.
With `CCc1nnc(CCC(=O)N2CCc3[nH]cnc3[C@H]2c2nc3ccccc3s2)s1` [Example 1115], the AC50 (24 hrs compound incubation) is 500 to 1000 nM.
For `O=C(CCC1CCCC1)N1CCc2[nH]cnc2[C@@H]1c1nc2ccccc2s1` [Example 1016, (R)-1-(4-(benzo[d]thiazol-2-yl)-6,7-dihydro-1H-imidazo[4,5-c]pyridin-5(4H)-yl)-3-cyclopentylpropan-1-one], the AC50 (24 hrs compound incubation) lay within 1000 to 5000 nM.
For the compound `O=C(c1n[nH]c2ccccc12)N1CCc2[nH]cnc2[C@H]1c1nc2ccccc2[nH]1` [(S)-(4-(1H-benzo[d]imidazol-2-yl)-1,4,6,7-tetrahydro-5H-imidazo[4,5-c]pyridin-5-yl)(1H-indazol-3-yl)methanone], the AC50 (24 hrs with compound) is more than 5000 nM.
Consider `Nc1cc(C(=O)N2CCc3[nH]cnc3[C@H]2c2nc3c(F)cccc3s2)n(C(F)F)n1` [Example 2053, (S)-(3-amino-1-(difluoromethyl)-1H-pyrazol-5-yl)(4-(4-fluorobenzo[d]thiazol-2-yl)-6,7-dihydro-1H-imidazo[4,5-c]pyridin-5(4H)-yl)methanone], for which the AC50 (24 hrs compound incubation) was in the range of 500 to 1000 nM.
Same read-out and setting: as for `Cc1nc(C)c(C(=O)N2CCc3[nH]cnc3[C@H]2c2nc3ccccc3s2)o1` [Example 1163], the figure is less than 500 nM.
With `O=C(Cc1nncs1)N1CCc2[nH]cnc2C1c1nc2ccccc2s1` (stereo not shown), the half-maximal activity concentration (AC50) (24 hrs with compound) is more than 5000 nM.
On the same count and under the same terms, as for `COCc1cc(C(=O)N2CCc3[nH]cnc3C2c2nc3c(F)cccc3s2)n(C)n1` (stereo not shown), the figure is more than 5000 nM.
Same read-out and setting: under `O=C(c1cnn2ccccc12)N1CCc2[nH]cnc2C1c1nc2ccc(F)cc2[nH]1` (stereo not shown) stands 1000 to 5000 nM.
On to `CC(=O)Cn1ncc(C(=O)N2CCc3[nH]cnc3C2c2nc3c(F)cccc3s2)c1Cl` (stereo not shown), for which the AC50 (24 hrs with compound) lay within 1000 to 5000 nM.
The same measure, in the same setting: as for `O=C(c1ccn(-c2ccccn2)n1)N1CCc2[nH]cnc2C1c1nc2c(F)cccc2s1` (stereo not shown), the figure is 1000 to 5000 nM.
Take `O=C(c1nc2ccc(F)cc2s1)N1CCc2[nH]cnc2[C@H]1c1nc2ccccc2[nH]1` [(S)-(4-(1H-benzo[d]imidazol-2-yl)-6,7-dihydro-1H-imidazo[4,5-c]pyridin-5(4H)-yl)(6-fluorobenzo[d]thiazol-2-yl)methanone]: for the setting “24 hrs with compound”, the AC50 lay within 1000 to 5000 nM.
As to `Cn1nncc1C(=O)N1CCc2[nH]cnc2[C@H]1c1nc2c(F)cccc2s1` [Example 1725], the AC50 (24 hrs compound incubation) lay within 500 to 1000 nM.
The same measure, in the same setting: under `CC(O)c1nc(Cl)c(C(=O)N2CCc3[nH]cnc3[C@@H]2c2nc3c(F)cccc3s2)o1` (single isomer, unassigned) [Example 2081] stands 1000 to 5000 nM; under `O=C(c1cnn2ccccc12)N1CCc2[nH]cnc2[C@H]1c1nc2ccc(Cl)cc2[nH]1` [Example 936, (S)-(4-(6-chloro-1H-benzo[d]imidazol-2-yl)-6,7-dihydro-1H-imidazo[4,5-c]pyridin-5(4H)-yl)(pyrazolo[1,5-a]pyridin-3-yl)methanone], 1000 to 5000 nM.
Regarding `Cc1csc(CCC(=O)N2CCc3[nH]cnc3[C@H]2c2nc3ccccc3[nH]2)n1` [(S)-1-(4-(1H-benzo[d]imidazol-2-yl)-1,4,6,7-tetrahydro-5H-imidazo[4,5-c]pyridin-5-yl)-3-(4-methylthiazol-2-yl)propan-1-one], the AC50 (24 hrs with compound) lay in the range of 1000 to 5000 nM.
In the case of `N#Cc1ccn2ncc(C(=O)N3CCc4[nH]cnc4[C@@H]3c3nc4ccccc4s3)c2c1` [Example 1086, (R)-3-(4-(benzo[d]thiazol-2-yl)-4,5,6,7-tetrahydro-1H-imidazo[4,5-c]pyridine-5-carbonyl)pyrazolo[1,5-a]pyridine-5-carbonitrile], for the setting “24 hrs compound incubation”, the AC50 fell in the range of 1000 to 5000 nM.
For the compound `Cc1nnc(C(=O)N2CCc3[nH]cnc3C2c2nc3ccccc3s2)o1` (stereo not shown), the AC50 (24 hrs with compound) was in the range of 1000 to 5000 nM.
For `O=C(c1nncs1)N1CCc2[nH]cnc2[C@@H]1c1nc2c(F)cccc2s1` [Example 1269, (R)-(4-(4-fluorobenzo[d]thiazol-2-yl)-6,7-dihydro-1H-imidazo[4,5-c]pyridin-5(4H)-yl)(1,3,4-thiadiazol-2-yl)methanone], the AC50 (24 hrs compound incubation) lay in the range of 1000 to 5000 nM.
Same read-out and setting: as for `O=C(c1cnc(C2CC2)s1)N1CCc2[nH]cnc2[C@H]1c1nc2ccccc2s1` [Example 1179], the figure is less than 500 nM.
As for `CNC(C)(C)c1nc(C)c(C(=O)N2CCc3[nH]cnc3C2c2nc3c(F)cccc3s2)o1` (stereo not shown), the AC50 (24 hrs with compound) fell in the range of 1000 to 5000 nM.
Still for that read-out and setting: under `CC(C)(O)c1cc(C(=O)N2CCc3[nH]cnc3C2c2nc3ccccc3s2)on1` (stereo not shown) stands more than 5000 nM.
Regarding `CC(F)c1nc(C(F)F)c(C(=O)N2CCc3[nH]cnc3[C@H]2c2nc3c(F)cccc3s2)o1` (single isomer, unassigned) [Example 2074], where the note is “24 hrs compound incubation”, the AC50 was less than 500 nM.
For `CC(C)(O)c1c(Br)ccc2c(C(=O)N3CCc4[nH]cnc4[C@@H]3c3nc4ccccc4s3)cnn12` [Example 1476, (R)-(4-(benzo[d]thiazol-2-yl)-6,7-dihydro-1H-imidazo[4,5-c]pyridin-5(4H)-yl)(6-bromo-7-(2-hydroxypropan-2-yl)pyrazolo[1,5-a]pyridin-3-yl)methanone], the half-maximal activity concentration (AC50) (24 hrs compound incubation) lay in the range of 1000 to 5000 nM.
In the case of `O=C(N1CC(F)C1)N1CCc2[nH]cnc2[C@H]1c1nc2ccccc2s1` [Example 1689], under “24 hrs compound incubation”, the concentration at half-maximal activity (AC50) was less than 500 nM.
